Reference: patent publication US8269000B2, “Substituted pyrimidine and triazine compounds” (Gruenenthal GmbH, priority 2008, dated 2012)

Tests used:
[1] = target: T1, human B1R (Homo sapiens, UniProt P46663); experiment: FLIPR Ca2+ functional study on bradykinin receptor 1 (hB1R CHO K1 cells); type: cell-based; settings: % inhibition human B1R at 10 μM, read-out: % inh. (hum. B1R) 10 μM
T1 construct: expressed in transfected cells; host or cells: CHO K1 cells
T1 sequence (P46663 1-353): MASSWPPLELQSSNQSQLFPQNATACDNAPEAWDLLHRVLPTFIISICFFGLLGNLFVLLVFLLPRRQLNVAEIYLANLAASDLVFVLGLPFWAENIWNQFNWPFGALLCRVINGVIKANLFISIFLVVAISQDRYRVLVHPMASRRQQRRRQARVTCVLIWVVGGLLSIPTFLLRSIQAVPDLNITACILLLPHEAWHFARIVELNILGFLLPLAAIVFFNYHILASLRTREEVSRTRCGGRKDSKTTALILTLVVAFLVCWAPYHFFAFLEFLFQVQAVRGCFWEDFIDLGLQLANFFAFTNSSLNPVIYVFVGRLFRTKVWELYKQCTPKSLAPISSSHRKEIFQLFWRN
Description: The agonistic or antagonistic activity of substances can be quantified on the bradykinin receptor 1 (B1R) of the species human and rat using ectopically expressing cell lines (CHO K1 cells) and with the aid of a Ca^2+-sensitive dye (Fluo-4) using a fluorescent imaging plate reader (FLIPR). The indication in % activation is based on the Ca^2+ signal after addition of Lys-Des-Arg^9-bradykinin (0.5 nM) or Des-Arg^9-bradykinin (100 nM). Antagonists lead to suppression of the Ca^2+ influx after the addition of the agonist. % Inhibition compared with the maximum achievable inhibition is indicated.
The agonistic or antagonistic activity of substances can be determined on the bradykinin receptor 1 (B1R) of the species human and rat using the following assay. According to this assay, the Ca^2+ influx through the channel is quantified with the aid of a Ca^2+-sensitive dye (Fluo-4 type, Molecular Probes Europe BV, Leiden, Netherlands) using a Fluorescent Imaging Plate Reader (FLIPR, Molecular Devices, Sunnyvale, USA).
Chinese hamster ovary cells (CHO K1 cells) which have been stably transfected with the human B1R gene (hB1R cells) or with the B1R gene of the rat (rB1R cells) are used. For functional studies, the cells are plated out on black 96-well plates having a clear base (BD Biosciences, Heidelberg, Germany or Greiner, Frickenhausen, Germany) in a density of 20,000-35,000 cells/well. The cells are left overnight at 37° C. and with 5% CO2 in culture medium (hB1R cells: Nutrient Mixture Ham's F12, Gibco Invitrogen GmbH, Karlsruhe, Germany or DMEM, Sigma-Aldrich, Taufkirchen, Germany; rB1R cells: D-MEM/F12, Gibco Invitrogen GmbH, Karlsruhe, Germany), with 10 vol.% FBS (fetal bovine serum, Gibco Invitrogen GmbH, Karlsruhe, Germany or PAN Biotech GmbH, Aidenbach, Germany). On the following day, the cells are loaded for 60 minutes at 37° C. with 2.13 μM Fluo-4 (Molecular Probes Europe BV, Leiden, Netherlands) in HBSS buffer (Hank's buffered saline solution, Gibco Invitrogen GmbH, Karlsruhe, Germany) […] (Sigma-Aldrich, Taufkirchen, Germany) and 10 mM HEPES (Sigma-Aldrich, Taufkirchen, Germany). The plates are then washed twice with HBSS buffer, and HBSS buffer additionally containing 0.1% BSA (bovine serum albumin; Sigma-Aldrich, Taufkirchen, Germany), 5.6 mM glucose and 0.05% gelatin (Merck KGaA, Darmstadt, Germany) is added to the plates. After incubation for a further 20 minutes at room temperature, the plates are inserted into the FLIPR for Ca^2+ measurement. Alternatively, washing is carried out with buffer A (15 mM HEPES, 80 mM NaCl, 5 mM KCl, 1.2 mM CaCl2, 0.7 mM MgSO4, 2 g/l glucose, 2.5 mM probenecid) followed by loading with buffer A with added 2.5 μM Fluo-4 and 0.025% Pluronic F127 (Sigma-Aldrich, Taufkirchen, Germany). The cells are then washed twice with buffer A and incubated for 30 minutes at room temperature with buffer A additionally containing 0.05% BSA and 0.05% gelatin and are then inserted into the FLIPR for Ca^2+ measurement. The Ca^2+-dependent fluorescence is measured before and after the addition of substances (λex=488 nm, λem=540 nm). Quantification is carried out by measuring the highest fluorescence intensity (FC, fluorescence counts) over time.
The FLIPR protocol consists of two substance additions. Test substances (10 μM) are first pipetted onto the cells and the Ca^2+ influx is compared with the control (hB1R: Lys-Des-Arg^9-bradykinin>=50 nM; rB1R: Des-Arg^9-bradykinin 10 μM). This gives the activation in %, based on the Ca^2+ signal after addition of Lys-Des-Arg^9-bradykinin (>=50 nM) or Des-Arg^9-bradykinin (10 μM). After 10-20 minutes' incubation, Lys-Des-Arg^9-bradykinin (hB1R) or Des-Arg^9-bradykinin (rB1R) is applied in the concentration of the EC80, and the influx of Ca^2+ is likewise determined. Antagonists lead to suppression of the Ca^2+ influx. The % inhibition compared with the maximum achievable inhibition is calculated. […]

[2] = target: T2, rat B1R (Rattus norvegicus, UniProt P97583); experiment: FLIPR Ca2+ functional study on bradykinin receptor 1 (rB1R CHO K1 cells); type: cell-based; settings: for inhibition at 10 µM: CHO-K1, % inhibition rat B1R at 10 μM, read-out: % inh. (rat B1R) 10 μM; for % inh. (rat B1R) 10 μM: % inhibition rat B1R at 10 μM
T2 construct: expressed in transfected cells; host or cells: CHO K1 cells
T2 sequence (P97583 1-337): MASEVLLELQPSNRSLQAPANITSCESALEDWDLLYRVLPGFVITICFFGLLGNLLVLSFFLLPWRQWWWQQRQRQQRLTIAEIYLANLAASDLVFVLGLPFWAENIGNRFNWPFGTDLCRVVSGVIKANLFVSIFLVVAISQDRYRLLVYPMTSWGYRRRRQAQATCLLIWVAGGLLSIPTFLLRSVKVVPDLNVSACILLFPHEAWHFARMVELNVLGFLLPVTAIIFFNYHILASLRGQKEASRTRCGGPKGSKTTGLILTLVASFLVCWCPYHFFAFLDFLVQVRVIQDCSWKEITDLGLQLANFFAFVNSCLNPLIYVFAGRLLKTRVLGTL
Method in brief: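 CHO K1 cells stably expressing human or rat B1R were loaded with Fluo-4 and read on FLIPR (ex 488/em 540 nm, peak counts). Test compound (10 μM, or a concentration range for IC50) was added first for % activation versus control agonist; after 10-20 min, EC80 Lys-Des-Arg9-bradykinin (human) or Des-Arg9-bradykinin (rat) was added, giving % inhibition of maximum. n=2-3, N≥2.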

Row | inhibition at 10 µM [1] [%] | inhibition at 10 µM [2] [%] | % inh. (rat B1R) 10 μM [2] [%] | Structure (SMILES)
1 | 44 | 99 |  | COc1cc(C)c(S(=O)(=O)N(C)CCOc2ccnc(N3CCC(CCN4CCCC4)CC3)n2)c(C)c1 [Example H-001, 4-methoxy-N,2,6-trimethyl-N-[2-[[2-[4-(2-1-pyrrolidinylethyl)-1-piperidinyl]-4-pyrimidinyl]oxy]ethyl]benzenesulfonamide]
2 | 81 | 51 |  | COc1cc(C)c(S(=O)(=O)N(C)CCOc2ccnc(N3CCN(c4ccncc4)CC3)n2)c(C)c1 [Example H-002]
3 | 90 |  | 71 | COc1cc(C)c(S(=O)(=O)N(C)CCOc2ccnc(N(C)CCN3CCC(c4ccccc4)(N(C)C)CC3)n2)c(C)c1 [Example H-003, N-[2-[[2-[2-(4-dimethylamino-4-phenyl-1-piperidinyl)ethyl-methylamino]-4-pyrimidinyl]oxy]ethyl]-4-methoxy-N,2,6-trimethylbenzenesulfonamide]
4 | 99 |  | 93 | COc1cc(C)c(S(=O)(=O)N2CCCCC2COc2ccnc(N(C)CCN3CCC(c4ccccc4)(N(C)C)CC3)n2)c(C)c1 (stereo not drawn) [Example H-004]
5 | 98 | 97 |  | COc1cc(C)c(S(=O)(=O)N(CCOc2ccnc(N3CCC(Oc4ccncc4)CC3)n2)C2CC2)c(C)c1 [Example H-005, N-cyclopropyl-4-methoxy-2,6-dimethyl-N-[2-[[2-[4-(4-pyridyloxy)-1-piperidinyl]-4-pyrimidinyl]oxy]ethyl]benzenesulfonamide]
6 | 64 | 92 |  | Cc1cccc(Cl)c1S(=O)(=O)N(CCOc1ccnc(N2CCC3(CCN(c4ccncc4)CC3)CC2)n1)C1CC1 [Example H-006, 2-chloro-N-cyclopropyl-6-methyl-N-[2-[[2-[9-(4-pyridyl)-3,9-diazaspiro[5.5]undecan-3-yl]-4-pyrimidinyl]oxy]ethyl]benzenesulfonamide]
7 | 11 | 80 |  | COc1cc(C)c(S(=O)(=O)N2CC(Oc3ccnc(N4CCC5(CCN(c6ccncc6)CC5)CC4)n3)C2)c(C)c1 [Example H-007, 3-[4-[[1-(4-methoxy-2,6-dimethylphenyl)sulfonyl-3-azetidinyl]oxy]-2-pyrimidinyl]-9-(4-pyridyl)-3,9-diazaspiro[5.5]undecane]
8 | 98 | 88 |  | COc1cc(C)c(S(=O)(=O)N(CCOc2cc(N3CCC4(CCN(c5ccncc5)CC4)CC3)ncn2)C2CC2)c(C)c1 [Example I-001, N-cyclopropyl-4-methoxy-2,6-dimethyl-N-[2-[[6-[9-(4-pyridyl)-3,9-diazaspiro[5.5]undecan-3-yl]-4-pyrimidinyl]oxy]ethyl]benzenesulfonamide]
9 | 94 | 109 |  | COc1cc(C)c(S(=O)(=O)N(CCN(C)c2cncc(N3CCC4(CCN(c5ccncc5)CC4)CC3)n2)C2CC2)c(C)c1 [Example I-002, N-cyclopropyl-4-methoxy-2,6-dimethyl-N-[2-[methyl-[6-(9-pyridin-4-yl-3,9-diazaspiro[5.5]undecan-3-yl)-pyrazin-2-yl]-amino]-ethyl]-benzenesulfonic acid amide]
10 | 96 | 108 |  | COc1cc(C)c(S(=O)(=O)N(CCN(C)c2cc(N3CCC4(CCN(c5ccncc5)CC4)CC3)ncn2)C2CC2)c(C)c1 [Example I-003, N-cyclopropyl-4-methoxy-2,6-dimethyl-N-[2-[methyl-[6-(9-pyridin-4-yl-3,9-diazaspiro[5.5]undecan-3-yl)-pyrimidin-4-yl]-amino]-ethyl]-benzenesulfonic acid amide]
11 | 85 | 102 |  | COc1cc(C)c(S(=O)(=O)N(CCN(C)c2ccnc(N3CCC4(CCN(c5ccncc5)CC4)CC3)n2)C2CC2)c(C)c1 [Example I-004, N-cyclopropyl-4-methoxy-2,6-dimethyl-N-[2-[methyl-[2-(9-pyridin-4-yl-3,9-diazaspiro[5.5]undecan-3-yl)-pyrimidin-4-yl]-amino]-ethyl]-benzenesulfonic acid amide]
12 | 96 | 111 |  | COc1cc(C)c(S(=O)(=O)N(CCN(C)c2nccc(N3CCC4(CCN(c5ccncc5)CC4)CC3)n2)C2CC2)c(C)c1 [Example I-005, N-cyclopropyl-4-methoxy-2,6-dimethyl-N-[2-[methyl-[4-(9-pyridin-4-yl-3,9-diazaspiro[5.5]undecan-3-yl)-pyrimidin-2-yl]-amino]-ethyl]-benzenesulfonic acid amide]
13 | 94 | 97 |  | COc1cc(C)c(S(=O)(=O)N(CCCc2cncc(N3CCC4(CCN(c5ccncc5)CC4)CC3)n2)C2CC2)c(C)c1 [Example I-006, N-cyclopropyl-4-methoxy-2,6-dimethyl-N-[3-[6-(9-pyridin-4-yl-3,9-diazaspiro[5.5]undecan-3-yl)-pyrazin-2-yl]-propyl]-benzenesulfonic acid amide]
14 | 98 | 97 |  | COc1cc(C)c(S(=O)(=O)N(C)CCOc2nccc(N3CCN(C4CCN(C)CC4)CC3)n2)c(C)c1 [G_CC-001, 4-methoxy-N,2,6-trimethyl-N-[2-[[4-[4-(1-methyl-4-piperidinyl)-1-piperazinyl]-2-pyrimidinyl]oxy]ethyl]benzenesulfonamide]
15 | 99 | 101 |  | COc1cc(C)c(S(=O)(=O)N2CCCCC2COc2nccc(N3CCN(C4CCN(C)CC4)CC3)n2)c(C)c1 (stereo not drawn) [G_CC-002, 2-[[1-(4-methoxy-2,6-dimethylphenyl)sulfonyl-2-piperidinyl]methoxy]-4-[4-(1-methyl-4-piperidinyl)-1-piperazinyl]pyrimidine]
